Experimental data published in PubChem BioAssay (NCI).
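Exposure lasted 48 hours, with cells grown in 96-well plates and compounds tested at five concentrations. At the TGI there is no net growth.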

What was measured:
Assay in all cases: inhibition of tumour cell growth, NCI panel, 48 h
SNB-19 CNS = tested on: SNB-19 CNS
CAKI-1 renal = tested on: CAKI-1 renal
UO-31 renal = tested on: UO-31 renal
MDA-MB-231 breast = tested on: MDA-MB-231 breast
NCI/ADR-RES ovarian = tested on: NCI/ADR-RES ovarian
LOX IMVI melanoma = tested on: LOX IMVI melanoma
SF-295 CNS = tested on: SF-295 CNS
KM12 colon = tested on: KM12 colon
UACC-257 melanoma = tested on: UACC-257 melanoma
NCI-H460 lung = tested on: NCI-H460 lung
MOLT-4 leukemia = tested on: MOLT-4 leukemia
MALME-3M melanoma = tested on: MALME-3M melanoma
RPMI-8226 leukemia = tested on: RPMI-8226 leukemia
HCT-116 colon = tested on: HCT-116 colon
MDA-MB-435 = tested on: MDA-MB-435
IGROV1 ovarian = tested on: IGROV1 ovarian
ACHN renal = tested on: ACHN renal
NCI-H226 lung = tested on: NCI-H226 lung
OVCAR-5 ovarian = tested on: OVCAR-5 ovarian
HCT-15 colon = tested on: HCT-15 colon
TK-10 renal = tested on: TK-10 renal
M14 melanoma = tested on: M14 melanoma
SNB-75 CNS = tested on: SNB-75 CNS
T-47D breast = tested on: T-47D breast
A498 renal = tested on: A498 renal
SW-620 colon = tested on: SW-620 colon
OVCAR-8 ovarian = tested on: OVCAR-8 ovarian
EKVX NSCLC = tested on: EKVX NSCLC
NCI-H23 lung = tested on: NCI-H23 lung
SK-MEL-28 melanoma = tested on: SK-MEL-28 melanoma
HOP-92 NSCLC = tested on: HOP-92 NSCLC
U251 CNS = tested on: U251 CNS
HL-60(TB) leukemia = tested on: HL-60(TB) leukemia
SN12C renal = tested on: SN12C renal
SK-MEL-5 melanoma = tested on: SK-MEL-5 melanoma
BT-549 breast = tested on: BT-549 breast
UACC-62 melanoma = tested on: UACC-62 melanoma
SF-539 CNS = tested on: SF-539 CNS
RXF 393 renal = tested on: RXF 393 renal
HCC-2998 colon = tested on: HCC-2998 colon
786-0 renal = tested on: 786-0 renal
OVCAR-4 ovarian = tested on: OVCAR-4 ovarian
OVCAR-3 ovarian = tested on: OVCAR-3 ovarian
HS 578T breast = tested on: HS 578T breast
SK-OV-3 ovarian = tested on: SK-OV-3 ovarian
HOP-62 NSCLC = tested on: HOP-62 NSCLC
DU-145 prostate = tested on: DU-145 prostate
SR leukemia = tested on: SR leukemia
CCRF-CEM leukemia = tested on: CCRF-CEM leukemia
HT29 colon = tested on: HT29 colon
MDA-N = tested on: MDA-N
PC-3 prostate = tested on: PC-3 prostate
COLO 205 colon = tested on: COLO 205 colon
K-562 leukemia = tested on: K-562 leukemia
A549 NSCLC = tested on: A549 NSCLC
SF-268 CNS = tested on: SF-268 CNS
MCF7 breast = tested on: MCF7 breast
NCI-H522 lung = tested on: NCI-H522 lung
SK-MEL-2 melanoma = tested on: SK-MEL-2 melanoma

`Cc1ccc(N2CN3OC(=O)N(c4ccccc4)[C@@]3(c3ccccc3)C2)cc1` was tested, and the TGI (SNB-19 CNS) was greater than 100 µM, the TGI (CAKI-1 renal) was greater than 100 µM and the TGI (UO-31 renal) was greater than 100 µM. It also gave a TGI (MDA-MB-231 breast) greater than 100 µM, a TGI (NCI/ADR-RES ovarian) greater than 100 µM and a TGI (LOX IMVI melanoma) greater than 100 µM. For the same molecule, the TGI (SF-295 CNS) was greater than 100 µM, the TGI (KM12 colon) was greater than 100 µM and the TGI (UACC-257 melanoma) was greater than 100 µM. The TGI (NCI-H460 lung) was greater than 100 µM, the TGI (MOLT-4 leukemia) was greater than 100 µM and the TGI (MALME-3M melanoma) was greater than 100 µM. The TGI (RPMI-8226 leukemia) was greater than 100 µM, the TGI (HCT-116 colon) was greater than 100 µM and the TGI (MDA-MB-435) was greater than 100 µM. The TGI (IGROV1 ovarian) was greater than 100 µM, the TGI (ACHN renal) was greater than 100 µM and the TGI (NCI-H226 lung) was greater than 100 µM. It also gave a TGI (OVCAR-5 ovarian) greater than 100 µM, a TGI (HCT-15 colon) greater than 100 µM and a TGI (TK-10 renal) greater than 100 µM. It also gave a TGI (M14 melanoma) greater than 100 µM, a TGI (SNB-75 CNS) greater than 100 µM and a TGI (T-47D breast) of 88.1 µM. It also gave a TGI (A498 renal) greater than 100 µM, a TGI (SW-620 colon) greater than 100 µM and a TGI (OVCAR-8 ovarian) greater than 100 µM. The TGI (EKVX NSCLC) was greater than 100 µM, the TGI (NCI-H23 lung) was greater than 100 µM and the TGI (SK-MEL-28 melanoma) was greater than 100 µM. It also gave a TGI (HOP-92 NSCLC) greater than 100 µM, a TGI (U251 CNS) greater than 100 µM and a TGI (HL-60(TB) leukemia) greater than 100 µM. It also gave a TGI (SN12C renal) greater than 100 µM, a TGI (SK-MEL-5 melanoma) greater than 100 µM and a TGI (BT-549 breast) greater than 100 µM. It also gave a TGI (UACC-62 melanoma) greater than 100 µM, a TGI (SF-539 CNS) greater than 100 µM and a TGI (RXF 393 renal) greater than 100 µM. It also gave a TGI (HCC-2998 colon) greater than 100 µM, a TGI (786-0 renal) greater than 100 µM and a TGI (OVCAR-4 ovarian) greater than 100 µM. For the same molecule, the TGI (OVCAR-3 ovarian) was greater than 100 µM, the TGI (HS 578T breast) was greater than 100 µM and the TGI (SK-OV-3 ovarian) was greater than 100 µM. It also gave a TGI (HOP-62 NSCLC) greater than 100 µM, a TGI (DU-145 prostate) greater than 100 µM and a TGI (SR leukemia) greater than 100 µM. The TGI (CCRF-CEM leukemia) was greater than 100 µM, the TGI (HT29 colon) was greater than 100 µM and the TGI (MDA-N) was greater than 100 µM. It also gave a TGI (PC-3 prostate) greater than 100 µM, a TGI (COLO 205 colon) greater than 100 µM and a TGI (K-562 leukemia) greater than 100 µM. It also gave a TGI (A549 NSCLC) greater than 100 µM, a TGI (SF-268 CNS) greater than 100 µM and a TGI (MCF7 breast) greater than 100 µM. The TGI (NCI-H522 lung) was greater than 100 µM and the TGI (SK-MEL-2 melanoma) was greater than 100 µM.

With `N#CC1=C(N)OC2=C(CCCc3ccccc32)C1c1ccc([N+](=O)[O-])cc1` (stereo not drawn) the TGI (SNB-19 CNS) was 45.7 µM, the TGI (CAKI-1 renal) was greater than 100 µM and the TGI (UO-31 renal) was 24 µM. It also gave a TGI (MDA-MB-231 breast) greater than 100 µM, a TGI (NCI/ADR-RES ovarian) of 31.6 µM and a TGI (LOX IMVI melanoma) of 41.1 µM. The TGI (SF-295 CNS) was 36.1 µM, the TGI (KM12 colon) was 32.5 µM and the TGI (UACC-257 melanoma) was 32.4 µM. The TGI (NCI-H460 lung) was 47.7 µM, the TGI (MOLT-4 leukemia) was 1.64 µM and the TGI (MALME-3M melanoma) was 29.9 µM. For the same molecule, the TGI (RPMI-8226 leukemia) was 13.1 µM, the TGI (HCT-116 colon) was 26.1 µM and the TGI (MDA-MB-435) was 39.8 µM. The TGI (IGROV1 ovarian) was 54 µM, the TGI (ACHN renal) was 39.1 µM and the TGI (NCI-H226 lung) was 52.5 µM. For the same molecule, the TGI (OVCAR-5 ovarian) was 50.2 µM, the TGI (HCT-15 colon) was 30.7 µM and the TGI (TK-10 renal) was 84.9 µM. It also gave a TGI (M14 melanoma) of 28 µM, a TGI (SNB-75 CNS) greater than 100 µM and a TGI (T-47D breast) of 26.1 µM. It also gave a TGI (A498 renal) of 27.1 µM, a TGI (SW-620 colon) of 35.5 µM and a TGI (OVCAR-8 ovarian) of 39 µM. It also gave a TGI (EKVX NSCLC) of 43 µM, a TGI (NCI-H23 lung) of 34.6 µM and a TGI (SK-MEL-28 melanoma) of 35.2 µM. It also gave a TGI (HOP-92 NSCLC) of 57.9 µM, a TGI (U251 CNS) of 29.8 µM and a TGI (HL-60(TB) leukemia) of 28.2 µM. It also gave a TGI (SN12C renal) of 29 µM, a TGI (SK-MEL-5 melanoma) of 28.3 µM and a TGI (BT-549 breast) of 23.9 µM. For the same molecule, the TGI (UACC-62 melanoma) was 24.5 µM, the TGI (SF-539 CNS) was 35.2 µM and the TGI (RXF 393 renal) was 27.6 µM. For the same molecule, the TGI (HCC-2998 colon) was 26.8 µM, the TGI (786-0 renal) was 42.6 µM and the TGI (OVCAR-4 ovarian) was 75.4 µM. For the same molecule, the TGI (OVCAR-3 ovarian) was 26.7 µM, the TGI (HS 578T breast) was greater than 100 µM and the TGI (SK-OV-3 ovarian) was 92.1 µM. For the same molecule, the TGI (HOP-62 NSCLC) was 35.9 µM, the TGI (DU-145 prostate) was 21.8 µM and the TGI (SR leukemia) was 37.4 µM. The TGI (CCRF-CEM leukemia) was 23.2 µM, the TGI (HT29 colon) was 28.2 µM and the TGI (MDA-N) was 38.2 µM. It also gave a TGI (PC-3 prostate) of 38.8 µM, a TGI (COLO 205 colon) of 31.7 µM and a TGI (K-562 leukemia) of 11.5 µM. The TGI (A549 NSCLC) was 74.6 µM, the TGI (SF-268 CNS) was 32.7 µM and the TGI (MCF7 breast) was 36.4 µM. It also gave a TGI (NCI-H522 lung) of 24.2 µM and a TGI (SK-MEL-2 melanoma) of 40.8 µM.
